From publication PMC11111691, “Cystine-knot peptide inhibitors of HTRA1 bind to a cryptic pocket within the active site region” (Nature Communications, 2024) come the findings set out here.

“Also recorded” adds a separate entry of the source. Positions of bridges follow the written chain, without caps; N, C: chain ends. Residues, ends and D or L forms follow the SMILES beside them. Bounds are passed on as bounds.

One data set can be described thus: CKP stability assay. Format: physicochemical. Particulars: chemical stability, PBS containing 0.15% DMSO, 0.3 mM (~1 mg/ml), 37 °C, LC-MS, HPLC UV 220 nm peak area normalized to DMSO peak, two independent experiments, preliminary. Here is the method:
The CKPs 1G10 and 1G10-ENI were incubated in PBS containing 0.15% DMSO at a concentration of 0.3 mM (~1 mg/ml) at 37 °C for 30 days. Samples from two independently performed experiments were frozen at −20 °C until further analysis. Thawed samples were diluted in H2O and injected into LC-MS (Agilent). From the HPLC UV trace (at 220 nm) the CKP peak area was normalized to the DMSO peak area from the same run. The values obtained from multiple HPLC runs were averaged and shown as dot plot.

Data set [1] can be described thus: MDCK trans-well cell permeability assay. The class given is in vitro ADME, canine. The conditions noted are these: dog, MDCK trans-well (protocol of Chen et al. 2018, canine Mdr1 knockout MDCK I), apical to basolateral, 50 µM CKP, 37C, 5% CO2, HBSS 25 mM HEPES pH 7.4, TOF/MS read-out, n = 4-6, read-out: Papp (apparent permeability).
Description: (§4) We carried out a cell permeability study using a MDCK trans-well assay, which is commonly
(§5) used at Genentech for permeability screening of compounds . This assay measures the flux of test
(§6) compound (Papp, apparent permeability) across a MDCK monolayer from the apical to the
(§7) basolateral compartment over a 16 h period.
sensitive mass spectrometry method .
(§8) 10x10-6 cm/s and compounds with Papp values of <1x10-6 cm/s are considered to be of low
Protocol of permeability assay:
(§9) Experiments were carried out as described (Chen et al. Evaluating the utility of canine Mdr1 knockout
(§10) Madin-Darby canine kidney I cells in permeability screening and efflux substrate determination, Mol
(§11) Cells were seeded in 96-well Corning Transwell plates (PET membrane, 1 µm pore size) at 75,000 cells
(§12) per well and grown in DMEM media supplemented with 10% FBS, 1% pen-strep and 1x Glutamax at
(§13) 37C, 5% CO2 for 48 h to ensure monolayer formation. Stock solutions of the three CKPs 1B3, 1D3-ENI
(§14) and 1G10-ENI were diluted in Hank's Balanced Salt solution containing 25 mM HEPES, pH 7.4 and 25
(§15) µM of the monolayer integrity marker lucifer yellow. CKPs at a concentration of 50 µM were added to
(§16) the apical (donor) chamber and the CKP the apparent permeability (Papp) was determined by quantifying
(§17) the amount of CKP in the basolateral (receiver) chamber after 16 h incubation at 37C, 5% CO2. The
(§18) samples from the basolateral chamber were supplemented with the experiment analytical internal standard
(§19) (100 nM propranolol in 50% ACN:50% water with 0.1% formic acid) and then injected in a Sciex Zeno
(§20) TOF 7600 mass spectrometer using TOF/MS mode.
The next data set relates to MDCK monolayer. Briefly: MDCK trans-well cell permeability assay. Format: in vitro ADME, canine. The conditions noted are these: MDCK trans-well, apical to basolateral, up to 50 µM, 16 h, mass spectrometry.
Another data set deals with HeLa cells. Briefly: Cell toxicity assay (CellTiter-Glo), HeLa. Format: cell-based. The conditions noted are these: 0.6-50 µM CKP, 24 h and 72 h, at least three independent experiments. The method, then:
(§1) reduction at the highest CKP concentration of 50 µM after 72 h (see results below). The absence of cell toxicity is likely due to the inability of the CKPs to penetrate cell membranes, which was experimentally determined in response to another reviewer. Due to space limitations we have not […]
(§2) Protocol of cell toxicity assay (Figure above):
(§3) HeLa cells or C32 melanoma cells were passaged in DMEM media supplemented with 10% FBS, 1% pen-strep and 1x Glutamax using standard culture conditions (5% CO2, 90% humidity at 37°C). At approximately 95% confluence cells were trypsinized, seeded onto 96-well plates (Corning) at 10,000 cells/well and grown for 24 h. Cells were then incubated with the CKPs 3B3, 1D3-ENI and 1G10-ENI (0, 0.6, 1.9, 5.6, 16.7 and 50 µM) at 37°C for 24 h or for 72h. As a positive control we used staurosporine (STS; 1µM). Cell viability was measured using the CellTiter-Glo luminescent cell viability assay (Promega) on an Envision Multilabel plate reader. Average of at least three independent experiments ± S.D. were plotted in Prism 10. Two-way ANOVA was performed on each dataset and compared to no drug samples and no significant viability reductions were observed, except for some treatments at the […]

The next data set deals with C32 melanoma cells. In words: Cell toxicity assay (CellTiter-Glo), C32. Particulars: for Viability reduction, C32 cells, 72 h: 50 µM CKP; for Cell viability, C32 melanoma cells: 0.6-50 µM CKP, 24 h and 72 h, at least three independent experiments. Format: cell-based, human. Here is the method: as §1, §2, §3
For orientation: In ATP-based viability assays light output follows the ATP content of the culture.

Description for MDCK monolayer: as §4, §5, §6, §7
sensitive mass spectrometry method .
as §8
Protocol of permeability assay:
as §9, §10, §11, §12, §13, §14, §15, §16, §17, §18, §19, §20

Consider `CC[C@H](C)[C@H](NC(=O)CNC(=O)[C@H](Cc1c[nH]c2ccccc12)NC(=O)CNC(=O)[C@@H]1CSSC[C@@H]2NC(=O)[C@H](CC(=O)O)NC(=O)[C@H](CC(=O)O)NC(=O)[C@H](Cc3c[nH]cn3)NC(=O)[C@H]([C@@H](C)O)NC(=O)[C@H](CCC(=O)O)NC(=O)[C@@H]3CSSC[C@H](NC(=O)[C@H]([C@@H](C)O)NC(=O)[C@H](CCC(N)=O)NC(=O)[C@H](CSSC[C@H](NC(=O)[C@@H](NC(=O)[C@@H]4CCCN4C(=O)[C@H](CC(=O)O)NC(=O)[C@@H](NC(=O)[C@@H]4CCCN4C(=O)[C@@H](N)Cc4ccc(O)cc4)C(C)C)[C@@H](C)CC)C(=O)N[C@@H](CC(N)=O)C(=O)N[C@@H](CCCCN)C(=O)N4CCC[C@H]4C(=O)N3)NC(=O)[C@H](Cc3ccccc3)NC(=O)[C@H](Cc3c[nH]c4ccccc34)NC(=O)[C@H](C)NC(=O)CNC(=O)[C@H](CO)NC2=O)C(=O)N[C@@H](Cc2ccc(O)cc2)C(=O)N[C@@H](Cc2ccc(O)cc2)C(=O)N[C@@H](C)C(=O)N[C@@H](CC(N)=O)C(=O)N[C@@H](Cc2c[nH]c3ccccc23)C(=O)N[C@@H](CO)C(=O)N1)C(=O)N[C@@H](CCCNC(=N)N)C(N)=O` [1G10-ENI] (H-YPVDPICNKPCETHDDCSGAWFCQTCYYANWSCGWGIR-NH2; disulfide 7-23, 11-26, 17-33), for which, in “CKP stability assay”, the “Stability: intact peptide after 30 days” value is “no change in peptide mass at 30 days; also recorded: highly stable”. For the same compound, the Papp A→B at 16 h, 50 µM in data set [1] was less than 0.003 ×10⁻⁶ cm/s. In addition, in the data set on MDCK monolayer, the “Cell permeability in the MDCK cell assay” value was “no detectable cell permeability”. Moreover, the “Cell viability, HeLa cells” value with HeLa cells is “did not appreciably affect cell viability”. For the same compound, in the data set on C32 melanoma cells, the “Viability reduction, C32 cells, 72 h” value turned out to be 13% and the “Cell viability, C32 melanoma cells” value is recorded as “did not appreciably affect cell viability”.

In the case of `CC[C@H](C)[C@H](N)C(=O)N[C@@H](Cc1c[nH]c2ccccc12)C(=O)N1CCC[C@H]1C(=O)N[C@@H](CC(=O)O)C(=O)N1CCC[C@H]1C(=O)N[C@H](C(=O)N[C@H]1CSSC[C@@H]2NC(=O)[C@H](Cc3ccccc3)NC(=O)[C@H](Cc3c[nH]c4ccccc34)NC(=O)[C@H](C)NC(=O)CNC(=O)[C@H](CO)NC(=O)[C@@H]3CSSC[C@@H](C(=O)NCC(=O)N[C@@H](Cc4c[nH]c5ccccc45)C(=O)NCC(=O)N[C@H](C(=O)N[C@@H](CCCNC(=N)N)C(N)=O)[C@@H](C)CC)NC(=O)[C@H](CO)NC(=O)[C@H](Cc4c[nH]c5ccccc45)NC(=O)[C@H](CC(N)=O)NC(=O)[C@H](C)NC(=O)[C@H](Cc4ccc(O)cc4)NC(=O)[C@H](Cc4ccc(O)cc4)NC(=O)[C@H](CSSC[C@H](NC(=O)[C@@H]4CCCN4C(=O)[C@H](CCCCN)NC(=O)[C@H](CC(N)=O)NC1=O)C(=O)N[C@@H](CCC(=O)O)C(=O)N[C@@H]([C@@H](C)O)C(=O)N[C@@H](Cc1c[nH]cn1)C(=O)N[C@@H](CC(=O)O)C(=O)N[C@@H](CC(=O)O)C(=O)N3)NC(=O)[C@H]([C@@H](C)O)NC(=O)[C@H](CCC(N)=O)NC2=O)[C@@H](C)CC` [1D3-ENI] (H-IWPDPICNKPCETHDDCSGAWFCQTCYYANWSCGWGIR-NH2; disulfide 7-23, 11-26, 17-33), in data set [1], the Papp A→B at 16 h, 50 µM is less than 0.003 ×10⁻⁶ cm/s. Besides, the “Cell permeability in the MDCK cell assay” value in the data set with MDCK monolayer was “no detectable cell permeability”. For the same compound, the “Cell viability, HeLa cells” value with HeLa cells was “did not appreciably affect cell viability”. In the data set with C32 melanoma cells, the “Viability reduction, C32 cells, 72 h” value is 13% and the “Cell viability, C32 melanoma cells” value was “did not appreciably affect cell viability”.
